# Values of other authors as cited in publication PMC9441020 (Journal of medicinal chemistry, 2022).
SMILES,inhibition of HIV-1 INST (HIV-1 INST),inhibition of HCV NS5B (HCV NS5B)
"O=C(O)c1nc(-c2cccs2)nc(O)c1O [compound 10, 5-Hydroxy-6-oxo-2-(thiophen-2-yl)-1,6-dihydropyrimidine-4-carboxylic acid]",did not inhibit,effectively inhibiting
"O=C(NCc1ccccc1)c1nc(-c2cccs2)nc(O)c1O [compound 11, N-Benzyl-5-hydroxy-6-oxo-2-(thiophen-2-yl)-1,6-dihydropyrimidine-4-carboxamide]",potently inhibited,without significantly inhibiting
